Test system: KRAS PDC tumor spheroids (HUVEC+MSC), viability
Assay: Anticancer human tumor 254851-301-R-J1-PDC patient-derived colon carcinoma cell line growth inhibition [KRAS2]
Details: for viability, T/C: stronger effect = lower value
Summary of the method: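 Combination screen of spheroid viability in tumor-cell co-cultures with endothelial (HUVEC) and mesenchymal stem cell stroma. Each agent was tested in half-log dilutions, topping at clinical Cmax or at 10 microM without a known Cmax.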

[1] = curve of first compound, second compound 0.1 µM
[2] = curve of first compound, second compound 0.316 µM
[3] = curve of first compound, second compound 1 µM
[4] = curve of first compound, second compound 3.16 µM
[5] = curve of first compound, second compound 10 µM
[6] = second compound 0.1 µM, first compound 0.0316 µM
[7] = second compound 0.1 µM, first compound 0.1 µM
[8] = second compound 0.1 µM, first compound 0.316 µM
[9] = second compound 0.1 µM, first compound 1 µM
[10] = second compound 0.1 µM, first compound 3.16 µM
[11] = second compound 0.1 µM, first compound 10 µM
[12] = second compound 0.316 µM, first compound 0.0316 µM
[13] = second compound 0.316 µM, first compound 0.1 µM
[14] = second compound 0.316 µM, first compound 0.316 µM
[15] = second compound 0.316 µM, first compound 1 µM
[16] = second compound 0.316 µM, first compound 3.16 µM
[17] = second compound 0.316 µM, first compound 10 µM
[18] = second compound 1 µM, first compound 0.0316 µM
[19] = second compound 1 µM, first compound 0.1 µM
[20] = second compound 1 µM, first compound 0.316 µM
[21] = second compound 1 µM, first compound 1 µM
[22] = second compound 1 µM, first compound 3.16 µM
[23] = second compound 1 µM, first compound 10 µM
[24] = second compound 3.16 µM, first compound 0.0316 µM
[25] = second compound 3.16 µM, first compound 0.1 µM
[26] = second compound 3.16 µM, first compound 0.316 µM
[27] = second compound 3.16 µM, first compound 1 µM
[28] = second compound 3.16 µM, first compound 3.16 µM
[29] = second compound 3.16 µM, first compound 10 µM
[30] = second compound 10 µM, first compound 0.0316 µM
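Further: spheroids exposed to compounds for seven days before readout.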
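Wherever viability, T/C is given: 100% = DMSO vehicle control luminescence of the spheroids.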

Question: How did the IC50 [1] turn out when `COC(=O)c1ccc2c(C(=Nc3ccc(N(C)C(=O)CN4CCN(C)CC4)cc3)c3ccccc3)c(O)[nH]c2c1` + CC1OCC2(CCN(c3cnc(Sc4ccnc(N)c4Cl)c(N)n3)CC2)C1N was run?
Answer: > 10000 nM

Question: And the IC50 [2]?
Answer: > 10000 nM

Question: And the IC50 [3]?
Answer: > 10000 nM

Question: What about the IC50 [4] of the same compound?
Answer: > 10000 nM

Question: And the IC50 [5]?
Answer: 2370 nM

Question: What about the viability, T/C [6] of the same compound?
Answer: 95.4%

Question: And the viability, T/C [7]?
Answer: 100%

Question: And the viability, T/C [8]?
Answer: 96%

Question: What about the viability, T/C [9] of the same compound?
Answer: 95%

Question: What about the viability, T/C [10] of the same compound?
Answer: 90.4%

Question: What about the viability, T/C [11] of the same compound?
Answer: 88.6%

Question: What about the viability, T/C [12] of the same compound?
Answer: 88.3%

Question: What about the viability, T/C [13] of the same compound?
Answer: 84.5%

Question: What about the viability, T/C [14] of the same compound?
Answer: 79.5%

Question: What about the viability, T/C [15] of the same compound?
Answer: 81.8%

Question: What about the viability, T/C [16] of the same compound?
Answer: 82%

Question: What about the viability, T/C [17] of the same compound?
Answer: 78.5%

Question: And the viability, T/C [18]?
Answer: 75.6%

Question: And the viability, T/C [19]?
Answer: 76.1%

Question: What about the viability, T/C [20] of the same compound?
Answer: 75.6%

Question: And the viability, T/C [21]?
Answer: 68.1%

Question: And the viability, T/C [22]?
Answer: 69.2%

Question: What about the viability, T/C [23] of the same compound?
Answer: 81.6%

Question: What about the viability, T/C [24] of the same compound?
Answer: 64.9%

Question: And the viability, T/C [25]?
Answer: 67.5%

Question: And the viability, T/C [26]?
Answer: 66%

Question: What about the viability, T/C [27] of the same compound?
Answer: 65.1%

Question: What about the viability, T/C [28] of the same compound?
Answer: 55.1%

Question: What about the viability, T/C [29] of the same compound?
Answer: 63%

Question: What about the viability, T/C [30] of the same compound?
Answer: 63.5%

Question: And the viability, T/C (second compound 10 µM, first compound 0.1 µM)?
Answer: 70%

Question: And the viability, T/C (second compound 10 µM, first compound 0.316 µM)?
Answer: 57.9%

Question: And the viability, T/C (second compound 10 µM, first compound 1 µM)?
Answer: 60.7%

Question: What about the viability, T/C (second compound 10 µM, first compound 3.16 µM) of the same compound?
Answer: 41.4%

Question: What about the viability, T/C (second compound 10 µM, first compound 10 µM) of the same compound?
Answer: 41.6%

Question: Which IC50 [1] does the source give for `CC(=O)Nc1cccc(-n2c(=O)n(C3CC3)c(=O)c3c(Nc4ccc(I)cc4F)n(C)c(=O)c(C)c32)c1` + COc1cc2nc(C)nc(NC(C)c3cc(N)cc(C(F)(F)F)c3)c2cc1OC1CCOC1 here?
Answer: 3.89 nM

Question: And the IC50 [2]?
Answer: 4.05 nM

Question: What about the IC50 [3] of the same compound?
Answer: 2.77 nM

Question: And the IC50 [4]?
Answer: 2.19 nM

Question: What about the IC50 [5] of the same compound?
Answer: 0.663 nM

Question: And the viability, T/C (second compound 0.1 µM, first compound 0.0001 µM)?
Answer: 105%

Question: And the viability, T/C (second compound 0.1 µM, first compound 0.000316 µM)?
Answer: 97.8%

Question: What about the viability, T/C (second compound 0.1 µM, first compound 0.001 µM) of the same compound?
Answer: 90.6%

Question: What about the viability, T/C (second compound 0.1 µM, first compound 0.00316 µM) of the same compound?
Answer: 60.4%

Question: What about the viability, T/C (second compound 0.1 µM, first compound 0.01 µM) of the same compound?
Answer: 9.1%

Question: What about the viability, T/C [6] of the same compound?
Answer: 2.7%

Question: What about the viability, T/C (second compound 0.316 µM, first compound 0.0001 µM) of the same compound?
Answer: 108%

Question: And the viability, T/C (second compound 0.316 µM, first compound 0.000316 µM)?
Answer: 99%

Question: And the viability, T/C (second compound 0.316 µM, first compound 0.001 µM)?
Answer: 94%

Question: What about the viability, T/C (second compound 0.316 µM, first compound 0.00316 µM) of the same compound?
Answer: 62.7%

Question: What about the viability, T/C (second compound 0.316 µM, first compound 0.01 µM) of the same compound?
Answer: 6.64%

Question: What about the viability, T/C [12] of the same compound?
Answer: 2.56%

Question: What about the viability, T/C (second compound 1 µM, first compound 0.0001 µM) of the same compound?
Answer: 111%

Question: And the viability, T/C (second compound 1 µM, first compound 0.000316 µM)?
Answer: 88.2%

Question: And the viability, T/C (second compound 1 µM, first compound 0.001 µM)?
Answer: 89.9%

Question: What about the viability, T/C (second compound 1 µM, first compound 0.00316 µM) of the same compound?
Answer: 45.8%

Question: What about the viability, T/C (second compound 1 µM, first compound 0.01 µM) of the same compound?
Answer: 5.69%

Question: And the viability, T/C [18]?
Answer: 2.26%

Question: And the viability, T/C (second compound 3.16 µM, first compound 0.0001 µM)?
Answer: 100%

Question: What about the viability, T/C (second compound 3.16 µM, first compound 0.000316 µM) of the same compound?
Answer: 97.7%

Question: And the viability, T/C (second compound 3.16 µM, first compound 0.001 µM)?
Answer: 85.6%

Question: And the viability, T/C (second compound 3.16 µM, first compound 0.00316 µM)?
Answer: 33.4%

Question: And the viability, T/C (second compound 3.16 µM, first compound 0.01 µM)?
Answer: 4.02%

Question: What about the viability, T/C [24] of the same compound?
Answer: 2.15%

Question: What about the viability, T/C (second compound 10 µM, first compound 0.0001 µM) of the same compound?
Answer: 84.8%

Question: And the viability, T/C (second compound 10 µM, first compound 0.000316 µM)?
Answer: 72.5%

Question: And the viability, T/C (second compound 10 µM, first compound 0.001 µM)?
Answer: 38%

Question: What about the viability, T/C (second compound 10 µM, first compound 0.00316 µM) of the same compound?
Answer: 3.27%

Question: What about the viability, T/C (second compound 10 µM, first compound 0.01 µM) of the same compound?
Answer: 2.32%

Question: And the viability, T/C [30]?
Answer: 1.62%

Question: What does the source list for `COc1cc2nccc(Oc3ccc(NC(=O)C4(C(=O)Nc5ccc(F)cc5)CC4)cc3)c2cc1OC` + C=CC(=O)N1CCN(c2nc(OCC3CCCN3C)nc3c2CCN(c2cccc4cccc(C)c24)C3)CC1CC#N?
Answer: IC50 (curve of first compound, second compound 0.0316 µM): > 10000 nM; IC50 [1]: 9100 nM; IC50 [2]: 9150 nM; IC50 [3]: 6790 nM; IC50 [4]: 839 nM; viability, T/C (second compound 0.0316 µM, first compound 0.0316 µM): 98.5%; viability, T/C (second compound 0.0316 µM, first compound 0.1 µM): 103%; viability, T/C (second compound 0.0316 µM, first compound 0.316 µM): 96.2%; viability, T/C (second compound 0.0316 µM, first compound 1 µM): 112%; viability, T/C (second compound 0.0316 µM, first compound 3.16 µM): 100%; viability, T/C (second compound 0.0316 µM, first compound 10 µM): 52.3%; viability, T/C [6]: 115%; viability, T/C [7]: 111%; viability, T/C [8]: 109%; viability, T/C [9]: 94.1%; viability, T/C [10]: 103%; viability, T/C [11]: 45%; viability, T/C [12]: 111%; viability, T/C [13]: 106%; viability, T/C [14]: 110%; viability, T/C [15]: 110%; viability, T/C [16]: 96%; viability, T/C [17]: 45.8%; viability, T/C [18]: 108%; viability, T/C [19]: 104%; viability, T/C [20]: 99.3%; viability, T/C [21]: 98.1%; viability, T/C [22]: 80.5%; viability, T/C [23]: 34.2%; viability, T/C [24]: 56.9%; viability, T/C [25]: 64.8%; viability, T/C [26]: 66.4%; viability, T/C [27]: 47.6%; viability, T/C [28]: 2.41%; viability, T/C [29]: 0.18%

Question: Which results are given for `COc1cc(Nc2ncc3c(n2)-c2ccc(Cl)cc2C(c2c(F)cccc2OC)=NC3)ccc1C(=O)O`?
Answer: viability, T/C (compound 0.0316 µM): 80.7% [middle of 5 runs]; viability, T/C (compound 0.1 µM): 41.5% [middle of 5 runs]; viability, T/C (compound 0.316 µM): 32.4% [middle of 5 runs]; viability, T/C (compound 1 µM): 28.5% [middle of 5 runs]; viability, T/C (compound 3.16 µM): 18.7% [middle of 5 runs]; viability, T/C (compound 10 µM): 10.7% [middle of 5 runs]; IC50 (curve of compound): 89.4 nM [middle of 5 runs]

Source: PubChem BioAssay AID1963868 (Molecular Pharmacology Branch, DTP, NCI, 2024)
